Assay results taken from doi:10.1101/2020.07.08.194076v1 (biorxiv, 2020).

Test system: SlG3
Assay: GGPPS enzyme assay
Format: biochemical, Solanum lycopersicum

SMILES	Km (co-substrate 100 µM DMAPP) [µM]	Km (co-substrate 100 µM IPP) [µM]
C=C(C)CCOP(=O)(O)OP(=O)(O)O [IPP]	45.9 ± 4.86	
CC(C)=CCOP(=O)(O)OP(=O)(O)O [DMAPP]		45.8 ± 6.81
